{"source": "patent US6001880A", "about": "“Alkylenediamine derivative, anti-ulcer drug, and antibacterial drug” (Shiseido Co., Ltd., priority 1997, dated 1999)", "key": {"mice": {"tested_on": "mice", "parameters": "species or system mouse (male Slc:ICR)", "conditions": "mouse, in vivo", "method": "AT: Single Dose Toxicity Pretest\nMale Slc:ICR mice (5-week-old) were used. Each group has 3 to 5 mice and each mouse was fasted, but allowed free access to water, for 4 to 5 hours from 9 a.m. in the test day. Then, 2,000 mg/10 ml/kg of the sample compound dissolved or suspended in an aqueous solution of 0.5% sodium carboxymethyl cellulose was orally administered thereto. To a control, only the vehicle was administered. […] The body weight was measured before and after the fasting as well as at the same time everyday. The dead animals were immediately subjected to autopsy and their organs were observed by naked eyes. Also, the living animals were sacrificed with ether or carbon dioxide one week after the administration and then their organs were observed by naked eyes.\nThe toxicity at the single dose of 2,000 mg/kg of the sample compound was expressed as being classified into 5 levels.\n5: mortality rate is 0%; no toxicity is found at all both in behavior and organs.\n4: Mortality rate is 0%; while no toxicity is found in organs, slight toxicity is observed in behavior or body weight increase.\n3: While there is a dead animal (though not all the animals are dead), no toxicity is found in organs.\n2: Regardless of whether there is a dead animal or not, toxicity is found in organs.\n1: All the animals are dead."}, "[1]": {"tested_on": "stress ulcer formation in rats", "assay": "WIS: Restraint and Water Immersion Stress-Induced Ulcer Inhibition Test", "assay_type": "in vivo, rat (male Crj:SD or Slc:SD)", "conditions": "100 mg/kg oral, 10 minutes before 7 h restraint and water immersion (21° C.)", "summary_of_the_method": "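Overnight-fasted male SD rats (6–7 weeks, n=5–8) dosed orally at 100 mg/kg in 0.3% CMC-Na or 0.05% Tween 80; 10 min later restrained and immersed to xiphoid in 21° C water for 7 h. Ulcer index is summed glandular erosion length; inhibition % = (1 − UI sample/UI control).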"}, "[2]": {"tested_on": "isolated gastric fundic gland", "assay": "CAP: Acid Secretion Inhibition Test In Vitro ([14C]-aminopyrine uptake)", "assay_type": "cell-based, rabbit (male Japanese White)", "conditions": "Oryctolagus cuniculus; final concentration 10^-5 M; histamine 10^-5 M stimulation; read-out: CAP: acid secretion inhibitory rate", "summary_of_the_method": "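Collagenase-isolated rabbit gastric fundic glands (1.6×10^6 cells/ml) were stimulated with 10^-5 M histamine in the presence of test compound and [14C]-aminopyrine, then shaken 40 min at 37 °C. Pellet versus supernatant radioactivity, corrected with a 20 mM NaSCN sample, gives specific aminopyrine accumulation as the acid-secretion index; duplicates.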"}, "[3]": {"tested_on": "Helicobacter pyroli (HP NCTC 11637)", "assay": "AHP: Antibacterial Activity Test Against Helicobacter pyroli (agar dilution)", "assay_type": "cell-based, Helicobacter pyroli NCTC 11637", "conditions": "MIC 100 μg/ml or more; colony number vs control plate, 250 mM solution of sample compound", "method": "AHP: Antibacterial Activity Test Against Helicobacter pyroli The minimum inhibitory concentration (MIC) against Helicobacter pyroli (microacrophilic gram-negative bacterium which is supposed to deeply involve in pathogenesis, relapse, and recrudescence of ulcer, referred to as \"HP\" in the following) is measured so as to find out compounds which have antibacterial activity against Helicobacter pyroli. MICs were determined by the agar dilution method. The stock culture (-80° C.) of HP NCTC 11637 was thawed and cultured on tripticase soy agar supplemented with 5% sheep blood at 37° C. in an atmosphere of 5% O2, 10% CO2, and 85% N2. Grown colonies were transferred to the same plate and precultured for 3 days under the same condition. […] An appropriate amount of the colony grown on the plate by preculturing was suspended in Mueller Hinton broth till turbidness was recognizable by naked eyes, thereby yielding a bacterial suspension concentrate containing about 10^7 cfu/ml. […] 10 μl of the bacterial suspension for inoculation (about 10^3 cfu) was dropped by dispenser onto an MIC plate for inoculation and cultured for 7 days under the same condition as that of preculture. Thereafter, it was judged whether there had been bacteria growth or not. […] As the result of the comparison of these plates, when the number of the colony on the plate containing the sample compound was less than 90% with respect to that on the control plate, it was represented by \"+\". Contrary to this, when there was 90% or more, it was represented by \"-\"."}}}
{"smiles": "CC(C)=CCC/C(C)=C/COc1ccc(C(=O)NCCN(C(C)C)C(C)C)cc1", "note": "[Example 7]", "values": [{"measurement": "AT: single dose toxicity level", "setting": "mice", "result": 5}, {"measurement": "WIS: ulcer formation inhibitory rate", "setting": "[1]", "result": 84, "unit": "%"}, {"measurement": "inhibition at 10 µM", "setting": "[2]", "result": 100, "unit": "%"}, {"measurement": "AHP: growth class where MIC was 100 μg/ml or more", "setting": "[3]", "result": "+ (the number of the colony on the plate containing the sample compound was less than 90% with respect to that on the control plate)"}]}
